In patent publication US20050227961A1, “Compositions and methods for treatment of neuropathic pain, fibromyalgia and chronic fatigue syndrome” (Vela Pharmaceuticals, Inc., priority 2004, published 2005):

System: lesioned hindpaw of rats suffering from neuropathic pain
Experiment: Neuropathic pain, thermal stimulation model in the rat (Chung spinal nerve ligature), paw withdrawal latency
Conditions: for Paw Withdrawal Latent (seconds) for Lesioned Paw, mean ± SEM / Paw withdrawal latency, % change compared with vehicle control: thermal stimulation

SMILES: CN1c2ccccc2C(NCCCCCCC(=O)O)c2ccc(Cl)cc2S1(=O)=O (stereo not drawn) [Tianeptine, 7-[(3-chloro-6,11-dihydro-6-methyl-dibenzo[c,f][1,2]thiazepin-11-yl)amino]heptanoic acid S,S-dioxide]
- Paw Withdrawal Latent (seconds) for Lesioned Paw, mean ± SEM (3 mg/kg p.o., at 30 min): 12.7 ± 4.9 s
- Paw withdrawal latency, % change compared with vehicle control (3 mg/kg p.o., at 30 min): +10%
- Paw Withdrawal Latent (seconds) for Lesioned Paw, mean ± SEM (3 mg/kg p.o., at 1 h): 20.3 ± 5.3 s
- Paw withdrawal latency, % change compared with vehicle control (3 mg/kg p.o., at 1 h): +43%
- Paw Withdrawal Latent (seconds) for Lesioned Paw, mean ± SEM (3 mg/kg p.o., at 2 h): 20.6 ± 6.3 s
- Paw withdrawal latency, % change compared with vehicle control (3 mg/kg p.o., at 2 h): +15%
- Paw Withdrawal Latent (seconds) for Lesioned Paw, mean ± SEM (3 mg/kg p.o., at 4 h): 13.8 ± 4.4 s
- Paw withdrawal latency, % change compared with vehicle control (3 mg/kg p.o., at 4 h): −30%
- Paw Withdrawal Latent (seconds) for Lesioned Paw, mean ± SEM (10 mg/kg p.o., at 30 min): 19.2 ± 6.0 s
- Paw withdrawal latency, % change compared with vehicle control (10 mg/kg p.o., at 30 min): +67%
- Paw Withdrawal Latent (seconds) for Lesioned Paw, mean ± SEM (10 mg/kg p.o., at 1 h): 15.1 ± 4.5 s
- Paw withdrawal latency, % change compared with vehicle control (10 mg/kg p.o., at 1 h): +6%
- Paw Withdrawal Latent (seconds) for Lesioned Paw, mean ± SEM (10 mg/kg p.o., at 2 h): 16.1 ± 5.1 s
- Paw withdrawal latency, % change compared with vehicle control (10 mg/kg p.o., at 2 h): −10%
- Paw Withdrawal Latent (seconds) for Lesioned Paw, mean ± SEM (10 mg/kg p.o., at 4 h): 26.1 ± 5.4 s
- Paw withdrawal latency, % change compared with vehicle control (10 mg/kg p.o., at 4 h): +32%
- Paw Withdrawal Latent (seconds) for Lesioned Paw, mean ± SEM (30 mg/kg p.o., at 30 min): 33.3 ± 5.5 s
- Paw withdrawal latency, % change compared with vehicle control (30 mg/kg p.o., at 30 min): +190%
- Paw Withdrawal Latent (seconds) for Lesioned Paw, mean ± SEM (30 mg/kg p.o., at 1 h): 29.0 ± 7.3 s
- Paw withdrawal latency, % change compared with vehicle control (30 mg/kg p.o., at 1 h): +104%
- Paw Withdrawal Latent (seconds) for Lesioned Paw, mean ± SEM (30 mg/kg p.o., at 2 h): 16.9 ± 5.0 s
- Paw withdrawal latency, % change compared with vehicle control (30 mg/kg p.o., at 2 h): −6%
- Paw Withdrawal Latent (seconds) for Lesioned Paw, mean ± SEM (30 mg/kg p.o., at 4 h): 19.3 ± 5.8 s
- Paw withdrawal latency, % change compared with vehicle control (30 mg/kg p.o., at 4 h): −2%
- paw withdrawal latency after thermal stimulation in the lesioned paw (result in words) (30 mg/kg, at 30 minutes): significant increase

SMILES: CN1CC[C@]23c4c5ccc(O)c4O[C@H]2[C@@H](O)C=C[C@H]3[C@H]1C5 [Morphine]
- Paw Withdrawal Latent (seconds) for Lesioned Paw, mean ± SEM (128 mg/kg p.o., at 30 min): 23.5 ± 6.4 s
- Paw withdrawal latency, % change compared with vehicle control (128 mg/kg p.o., at 30 min): +104%
- Paw Withdrawal Latent (seconds) for Lesioned Paw, mean ± SEM (128 mg/kg p.o., at 1 h): 40.5 ± 3.0 s
- Paw withdrawal latency, % change compared with vehicle control (128 mg/kg p.o., at 1 h): +185%
- Paw Withdrawal Latent (seconds) for Lesioned Paw, mean ± SEM (128 mg/kg p.o., at 2 h): 16.7 ± 6.0 s
- Paw withdrawal latency, % change compared with vehicle control (128 mg/kg p.o., at 2 h): −7%
- Paw Withdrawal Latent (seconds) for Lesioned Paw, mean ± SEM (128 mg/kg p.o., at 4 h): 21.7 ± 5.7 s
- Paw withdrawal latency, % change compared with vehicle control (128 mg/kg p.o., at 4 h): +10%
